Experimental data reported in US4738979A, “α2 -blocking derivatives of imidazole” (G. D. Searle & Co., priority 1985, dated 1988).
Entries after “also recorded” stand apart in the source; their conditions may differ. Like-named read-outs stand apart in the source and are kept apart here.

Key:
α1 -adrenergic receptors = experiment: binding to α1-adrenergic receptors on rat brain homogenates (3H-WB 4101); conditions: 1.6 nM 3H-WB 4101
Method: (§1) The activity of the compounds according to the invention with respect to binding of the α-adrenergic receptors was determined in vitro according to a method deriving from the works of B. R. Rouot et al., Life Sci., 25, 769 (1979) and of D. U'Prichard et al., Mol. Pharmacol., 13, 454 (1977). This method consists in measuring the binding to the receptor on rat brain homogenates, by marking by means of a specific tritriated ligand placed in competition with the product to be tested.
(§2) In the presenct case the binding to the α1 -adrenergic receptors was measured by means of 1.6 nM of ^3 H-WB 4101 and the binding to the α2 -adrenergic receptors by means of 0.7 nM of ^3 H-p. aminoclonidine, the non-specific binding being determined by 1,000 nM of phentolamine. The results are given in Table II, column 3, and are expressed in terms of percentage of inhibition of the specific binding of 10^-7 molar compound concentration.
(§3) (2) The specific binding is the total binding less the nonspecific
(§4) binding. The total binding is the binding in the absence of nonradioactiv
(§5) drug. The nonspecific binding is the binding in the presence of 1,000 nM
(§6) of phentolamine. The products of the invention are tested at a
(§7) concentration of 10^-7 molar.

α2 -adrenergic receptors = biological target: T1, α2 -adrenergic receptors (Rattus norvegicus, UniProt P22909); experiment: binding to α2-adrenergic receptors on rat brain homogenates (3H-p. aminoclonidine); conditions: 10^-7 M; for inhibition at 0.1 µM: rat brain homogenates, 0.7 nM 3H-p. aminoclonidine, read-out: % Inhibition of the Specific Binding at 10^-7 M for α2 Recep.; for affinity for α2 receptors (in words): in vitro binding assay
T1 construct: from tissue; host or cells: rat brain homogenates
T1 sequence (P22909 1-465): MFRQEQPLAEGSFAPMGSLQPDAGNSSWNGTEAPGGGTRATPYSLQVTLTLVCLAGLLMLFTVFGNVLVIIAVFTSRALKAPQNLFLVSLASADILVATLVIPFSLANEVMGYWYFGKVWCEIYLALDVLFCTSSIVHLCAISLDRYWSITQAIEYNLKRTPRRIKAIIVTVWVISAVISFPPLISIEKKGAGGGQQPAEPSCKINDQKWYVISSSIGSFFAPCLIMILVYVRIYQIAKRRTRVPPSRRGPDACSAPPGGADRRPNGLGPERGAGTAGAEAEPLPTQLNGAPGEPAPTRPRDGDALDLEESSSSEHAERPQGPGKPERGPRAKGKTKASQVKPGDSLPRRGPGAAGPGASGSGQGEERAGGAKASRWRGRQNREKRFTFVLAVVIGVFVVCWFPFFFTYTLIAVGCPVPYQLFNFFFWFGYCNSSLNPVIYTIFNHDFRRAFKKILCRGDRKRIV
Method: as §1, §2, §3, §4, §5, §6, §7

[1] = test system: peripheral vascular α2 receptors; experiment: inhibition of the pressor effect of BHT 920 in pithed rats; format: in vivo, rat; conditions: 1 mg/kg i.v., BHT 920 30 μg/kg i.v.
Method: The α2 antagonist activity of the compounds is evaluated by the inhibition of the pressor effect (blood pressure elevation), of a specific α2 agonist agent, 4H-Thiazolo[4,5-b]azetin-2-amine, 5,6,7,8-tetrahydro-6-(2-propenyl)-, dihydrochloride, designated as BHT 920 at a concentration of 30 μg/kg i.v.) according to a method described by J. C. Van Meel et al., J. Pharmacol. Exp. Ther., 219, 760-767 (1981).
The compound to be tested is administered at 1 mg/kg i.v. The ability of the compounds tested to antagonize the pressor effects of BHT 920 is determined and expressed as percentage of inhibition. Any direct hypertensive (=α2 agonist) activity of the compounds under test can likewise be detected.

[2] = test system: 3-mercaptopropionic acid (3-MPA)-induced tonic extension in mice; experiment: protection against 3-mercaptopropionic acid (3-MPA)-induced tonic extension in mice; format: in vivo; conditions: 100 mg/kg orally, 30 minutes prior to 3-MPA (120 mg/kg s.c.)
Method: In the second study the anti-convulsant effect of the compounds of the present invention was examined in two seizure models; bicuculline-induced tonic extension in mice and 3-mercaptopropionic acid (3-MPA)-induced tonic extension in mice.
In the bicuculline study, the ability of the compounds of the present invention to protect against tonic extension (involving rigidity) was evaluated as follows. Each test compound was administered to a group of ten mice at a dose of 10 mg/kg, 3 hours prior to the i.v. administration of bicuculline (0.7 mg/kg). Anticonvulsant activity in this test is expressed as percentage of animals tested. The results are given in Table II, column 6, and indicate that several compounds display significant anticonvulsive activity in this test. The anticonvulsant effect of the compounds has also been tested with respect to the tonic extension induced by 3-mercaptopropionic acid (120 mg/kg subcutaneously) in mice.
In the 3-MPA assay, the compounds of the present invention are administered orally at a dose of 100 mg/kg 30 minutes prior to administration of 3-MPA. Each compound was tested on a group of 5 mice; if more than 1 mouse was protected, a second group of 5 mice was tested.

[3] = test system: clonidine-induced depression of locomotor activity and rearing activity; experiment: clonidine-induced depression of locomotor activity, open field test in mice; format: in vivo; conditions: for minimal effective dose: Mus musculus, 2 hours prior to clonidine 0.3 mg/kg p.o.
Source text: The third in vivo study evaluation activity of the compounds of the invention on clonidine induced depression of locomotor activity. The previously-discussed study involving clonidine related to its α2 agonist effects on the brain's regulation of the cardiovascular system. The present study involved clonidine α2 agonist effects on central control of locomotor activity. Clonidine inhibits locomotor activity and rearing activity in the mouse. In this "open field" test, mice are pretreated with the compounds of the present invention at doses of 1 to 10 mg/kg p.o. […] Each compound was evaluated for its ability to antagonize the effect of clonidine. […] Compound No. 1 antagonizes clonidine-induced depression of locomotor activity and rearing activity from 1 mg/kg p.o. and from 3 mg/kg p.o., respectively. The effects of chronic administration of compound No. 1 were also evaluated in this test. In this study, groups of 5-6 mice were treated with compound No. 1 (3 mg/kg p.o.) either twice daily for 14 days (chronic) or with one single dose (acute).

Structure (SMILES): c1ccc(C(Cc2c[nH]cn2)c2ccccc2)cc1 [Compound 1, 4(5)-(2,2-diphenylethyl)-imidazole]
- % Inhibition of the Specific Binding at 10^-7 M for α1 Recep. (α1 -adrenergic receptors): 17%
- inhibition at 0.1 µM (α2 -adrenergic receptors): 89%
- affinity for α2 receptors (in words) (α2 -adrenergic receptors): high affinity
- α2 antagonist activity, inhibition of pressor effect of BHT 920 (in words) [1]: very active as α2 antagonist agents
- anticonvulsant effect versus 3-MPA (in words) [2]: potent anticonvulsant effect
- activity in the open field test after chronic administration (in words) ([3]; 3 mg/kg p.o. twice daily 14 days, clonidine 0.15 mg/kg i.p.): at the same level as after acute administration; also recorded: disappeared 24 hours after withdrawal of the drug
- minimal effective dose ([3]; mice, read-out: active dose antagonizing clonidine-induced depression of locomotor activity): ≥ 1 mg/kg
- minimal effective dose ([3]; mice, read-out: active dose antagonizing clonidine-induced depression of rearing activity): ≥ 3 mg/kg
- % Inhibition of the Effect of Clonidine on Locomotor Activity in Mice ([3]; acute, 3 mg/kg p.o., 1 h after last administration, clonidine 0.15 mg/kg i.p.): 52%
- % Inhibition of the Effect of Clonidine on Locomotor Activity in Mice ([3]; chronic, 3 mg/kg p.o. twice daily 14 days, 1 h after last administration, clonidine 0.15 mg/kg i.p.): 59%
- % Inhibition of the Effect of Clonidine on Locomotor Activity in Mice ([3]; chronic, 3 mg/kg p.o. twice daily 14 days, 24 h after last administration, clonidine 0.15 mg/kg i.p.): 3%
- % Inhibition of the Effect of Clonidine on Locomotor Activity in Mice ([3]; chronic, 3 mg/kg p.o. twice daily 14 days, 72 h after last administration, clonidine 0.15 mg/kg i.p.): 5%
- accumulation of the compound after chronic administration (in words) ([3]; inferred from open field activity after withdrawal, 14 days twice daily): Accumulation of the compound does not appear to occur
- activity in the open field test (in words) ([3]; mice, 1 to 10 mg/kg p.o., clonidine 0.3 mg/kg p.o.): particularly active

Structure (SMILES): CC(c1c[nH]cn1)C(c1ccccc1)c1ccccc1 (centres unmarked) [Compound 4]
- % Inhibition of the Specific Binding at 10^-7 M for α1 Recep. (α1 -adrenergic receptors): 4%
- inhibition at 0.1 µM (α2 -adrenergic receptors): 5%
- α2 antagonist activity, inhibition of pressor effect of BHT 920 (in words) [1]: very active as α2 antagonist agents

Structure (SMILES): Cc1cccc(C(Cc2c[nH]cn2)c2ccccc2)c1 (centres unmarked) [Compound 9, 4(5)-{[2-(3-methylphenyl)-2-phenyl]ethyl}imidazole]
- % Inhibition of the Specific Binding at 10^-7 M for α1 Recep. (α1 -adrenergic receptors): 4%
- inhibition at 0.1 µM (α2 -adrenergic receptors): 85%
- affinity for α2 receptors (in words) (α2 -adrenergic receptors): high affinity
- α2 antagonist activity, inhibition of pressor effect of BHT 920 (in words) [1]: very active as α2 antagonist agents

Structure (SMILES): Cc1ccccc1C(Cc1c[nH]cn1)c1ccccc1 (centres unmarked) [Compound 12]
- % Inhibition of the Specific Binding at 10^-7 M for α1 Recep. (α1 -adrenergic receptors): 0%
- inhibition at 0.1 µM (α2 -adrenergic receptors): 71%
- α2 antagonist activity, inhibition of pressor effect of BHT 920 (in words) [1]: very active as α2 antagonist agents

Structure (SMILES): Clc1ccccc1C(Cc1c[nH]cn1)c1ccccc1 (centres unmarked) [Compound 13, 4(5)-{[2-(2-chlorophenyl)-2-phenyl]ethyl}imidazole]
- % Inhibition of the Specific Binding at 10^-7 M for α1 Recep. (α1 -adrenergic receptors): 7%
- inhibition at 0.1 µM (α2 -adrenergic receptors): 81%
- affinity for α2 receptors (in words) (α2 -adrenergic receptors): high affinity
- α2 antagonist activity, inhibition of pressor effect of BHT 920 (in words) [1]: very active as α2 antagonist agents
- anticonvulsant effect versus 3-MPA (in words) [2]: potent anticonvulsant effect

Structure (SMILES): Fc1ccc(C(Cc2c[nH]cn2)c2ccccc2)cc1 (centres unmarked) [Compound 14, 4(5)-{[2-(4-fluorophenyl)-2-phenyl]ethyl}imidazole]
- % Inhibition of the Specific Binding at 10^-7 M for α1 Recep. (α1 -adrenergic receptors): 0%
- inhibition at 0.1 µM (α2 -adrenergic receptors): 69%
- α2 antagonist activity, inhibition of pressor effect of BHT 920 (in words) [1]: very active as α2 antagonist agents

Structure (SMILES): Fc1ccc(C(Cc2c[nH]cn2)c2ccccc2F)cc1 (centres unmarked) [Compound 15, 4(5)-{[2-(2-fluorophenyl)-2-(4'-fluorophenyl)]ethyl}imidazole]
- % Inhibition of the Specific Binding at 10^-7 M for α1 Recep. (α1 -adrenergic receptors): 7%
- inhibition at 0.1 µM (α2 -adrenergic receptors): 77%
- α2 antagonist activity, inhibition of pressor effect of BHT 920 (in words) [1]: very active as α2 antagonist agents

Structure (SMILES): Cc1ccc(C)c(C(Cc2c[nH]cn2)c2ccccc2)c1 (centres unmarked) [Compound 16]
- % Inhibition of the Specific Binding at 10^-7 M for α1 Recep. (α1 -adrenergic receptors): 0%
- inhibition at 0.1 µM (α2 -adrenergic receptors): 31%
- anticonvulsant effect versus 3-MPA (in words) [2]: potent anticonvulsant effect

Structure (SMILES): COc1ccc(C(Cc2c[nH]cn2)c2ccccc2)cc1 (centres unmarked) [Compound 17, 4(5)-{[2-(4-methoxyphenyl)-2-phenyl]ethyl}imidazole]
- % Inhibition of the Specific Binding at 10^-7 M for α1 Recep. (α1 -adrenergic receptors): 6%
- inhibition at 0.1 µM (α2 -adrenergic receptors): 78%
- α2 antagonist activity, inhibition of pressor effect of BHT 920 (in words) [1]: very active as α2 antagonist agents

Structure (SMILES): Cc1ccc(C(Cc2c[nH]cn2)c2ccccc2)cc1 (centres unmarked) [Compound 21]
- % Inhibition of the Specific Binding at 10^-7 M for α1 Recep. (α1 -adrenergic receptors): 4%
- inhibition at 0.1 µM (α2 -adrenergic receptors): 74%
- α2 antagonist activity, inhibition of pressor effect of BHT 920 (in words) [1]: very active as α2 antagonist agents
